Data set [1] can be described thus: Approximate solubility in water at different pH values.
Data set [2] is described as follows: physchem.

The text below walks through data of patent EP2283824B1, “Compositions and formulations based on swellable matrices for sustained release of poorly soluble drugs such as clarithromycin” (Special Product's Line S.p.A., priority 2009, dated 2011).

≈ marks a conversion by molar mass, not a printed value.

Turning to `CC[C@H]1OC(=O)[C@H](C)[C@@H](O[C@H]2C[C@@](C)(OC)[C@@H](O)[C@H](C)O2)[C@H](C)[C@@H](O[C@@H]2O[C@H](C)C[C@H](N(C)C)[C@H]2O)[C@](C)(OC)C[C@@H](C)C(=O)[C@H](C)[C@@H](O)[C@]1(C)O` [clarithromycin], the solubility in data set [1] (pH 1, simulated gastric fluid) was 26100 µg/mL (≈ 34.9 mM); in data set [1] (pH 4.5, aqueous buffer) it was 3900 µg/mL (≈ 5.21 mM); in data set [1] (pH 6, aqueous buffer), 3300 µg/mL (≈ 4.41 mM).
Take `CC[C@H]1OC(=O)[C@H](C)[C@@H](O[C@H]2C[C@@](C)(OC)[C@@H](O)[C@H](C)O2)[C@H](C)[C@@H](O[C@@H]2O[C@H](C)C[C@H](N(C)C)[C@H]2O)[C@](C)(O)C[C@](C)(F)C(=O)[C@H](C)[C@@H](O)[C@]1(C)O` [flurithromycin]: the solubility in data set [2] (pH 1, simulated gastric fluid) was 22000 µg/mL (≈ 29.3 mM); in data set [2] (pH 2, simulated gastric fluid) it was 11800 µg/mL (≈ 15.7 mM); in data set [2] (pH 4.5, aqueous buffer), 4200 µg/mL (≈ 5.59 mM); in data set [2] (pH 6, aqueous buffer), 300 µg/mL (≈ 0.399 mM).
